Assay results from article PMC8315109 (Science signaling, 2021).

Columns and labels:
[1] = target: T1, Jupiter microtubule-associated homolog 2 (JPT2) (Homo sapiens, UniProt Q9H910); assay: […]-NAADP radioligand filtration binding, displacement by unlabeled NAADP
T1 sequence (Q9H910 1-218 isoform Q9H910-3): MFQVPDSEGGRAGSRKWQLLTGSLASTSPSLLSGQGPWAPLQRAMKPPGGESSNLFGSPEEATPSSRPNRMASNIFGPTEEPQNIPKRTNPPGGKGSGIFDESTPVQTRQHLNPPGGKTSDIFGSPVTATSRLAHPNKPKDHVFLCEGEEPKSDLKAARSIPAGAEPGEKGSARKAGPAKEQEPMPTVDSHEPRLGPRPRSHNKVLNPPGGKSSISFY

[2] = target: T1, Jupiter microtubule-associated homolog 2 (JPT2); assay: […]-NAADP radioligand filtration binding, displacement by HPLC-purified NADP

Row | Structure (SMILES) | IC50 [1] [nM] | IC50 [2] [nM]
1 | Nc1ncnc2c1ncn2[C@@H]1O[C@H](COP(=O)(O)OP(=O)(O)OC[C@H]2O[C@@H]([n+]3cccc(C(=O)O)c3)[C@H](O)[C@@H]2O)[C@@H](O)[C@H]1OP(=O)(O)O [NAADP] | 20 ± 3.6 | 
2 | NC(=O)c1ccc[n+]([C@@H]2O[C@H](COP(=O)(O)OP(=O)(O)OC[C@H]3O[C@@H](n4cnc5c(N)ncnc54)[C@H](OP(=O)(O)O)[C@@H]3O)[C@@H](O)[C@H]2O)c1 [NADP] |  | 334 ± 76
